Active and inactive are the calls of the source. The rule behind the calls is not given here.

The subject of this data set is CCRIS mutagenicity, Ames/micronucleus/aberration tests. Nature of the data set: CCRIS mutagenicity studies. The note with it: Test System: AMES SALMONELLA TYPHIMURIUM, Method: PREINCUBATION
Setting [1] is: Strain/Indicator: TA98, Metabolic Activation: NONE.

In the case of `NC(=O)c1ccccc1O`, the mutagenic call was “inactive; negative” (Strain/Indicator: TA97, Metabolic Activation: HAMSTER, LIVER, S-9, AROCLOR 1254 (10 OR 30%)); “inactive; negative” (Strain/Indicator: TA97, Metabolic Activation: NONE); “inactive; negative” (Strain/Indicator: TA97, Metabolic Activation: RAT, LIVER, S-9, AROCLOR 1254 (10 OR 30%)); “inactive; negative” (Strain/Indicator: TA98, Metabolic Activation: GUINEA PIG, LIVER, S-9, PCB); “inactive; negative” (Strain/Indicator: TA98, Metabolic Activation: HAMSTER, LIVER, S-9, AROCLOR 1254 (10 OR 30%)); “inactive; negative” (Strain/Indicator: TA98, Metabolic Activation: HAMSTER, LIVER, S-9, PCB). Besides, the mutagenic call runs as follows: (Strain/Indicator: TA98, Metabolic Activation: MOUSE, LIVER, S-9, PCB) “inactive; negative”; under setting [1], “inactive; negative”; (Strain/Indicator: TA98, Metabolic Activation: RAT, LIVER, S-9, AROCLOR 1254 (10 OR 30%)) “inactive; negative”; (Strain/Indicator: TA98, Metabolic Activation: RAT, LIVER, S-9, PCB) “inactive; negative”; (Strain/Indicator: TA100, Metabolic Activation: GUINEA PIG, LIVER, S-9, PCB) “inactive; negative”; (Strain/Indicator: TA100, Metabolic Activation: HAMSTER, LIVER, S-9, AROCLOR 1254 (10 OR 30%)) “inactive; negative”. For the same compound, the mutagenic call was “inactive; negative” (Strain/Indicator: TA100, Metabolic Activation: HAMSTER, LIVER, S-9, PCB); “inactive; negative” (Strain/Indicator: TA100, Metabolic Activation: MOUSE, LIVER, S-9, PCB); “inactive; negative” (Strain/Indicator: TA100, Metabolic Activation: NONE); “inactive; negative” (Strain/Indicator: TA100, Metabolic Activation: RAT, LIVER, S-9, AROCLOR 1254 (10 OR 30%)); “inactive; negative” (Strain/Indicator: TA100, Metabolic Activation: RAT, LIVER, S-9, PCB); “inactive; negative” (Strain/Indicator: TA1535, Metabolic Activation: HAMSTER, LIVER, S-9, AROCLOR 1254 (10 OR 30%)). The mutagenic call by setting is: (Strain/Indicator: TA1535, Metabolic Activation: NONE) “inactive; negative”; (Strain/Indicator: TA1535, Metabolic Activation: RAT, LIVER, S-9, AROCLOR 1254 (10 OR 30%)) “inactive; negative”.
Consider `O=S(=O)(O)OCc1c2ccccc2cc2c1ccc1ccccc12`, for which the mutagenic call under setting [1] is “active; positive”.
With `c1ccc([Se][Se]c2ccccc2)cc1`, the mutagenic call (Strain/Indicator: TA97A, Metabolic Activation: NONE) is “active; positive” and the mutagenic call (Strain/Indicator: TA102, Metabolic Activation: NONE) was “inactive; negative”.

Values taken from PubChem BioAssay AID1259407 (Chemical Carcinogenesis Research Information System (CCRIS), 2018).
